One may read the IC50 as the point on the concentration scale where inhibition reaches its midpoint.

Activity calls are given as the source filed them. The calls are words filed in the database; no cut-off is given here.

The text below walks through data of ChEMBL document CHEMBL6096682, “Discovery of D-Ring-Contracted Artemisinin as a Potent Hydrophobic Tag for Targeted Protein Degradation” (J Med Chem, 2025).

Test [1] addresses T1, Estrogen receptor (Homo sapiens) (UniProt P03372).
T1 sequence (whole entry): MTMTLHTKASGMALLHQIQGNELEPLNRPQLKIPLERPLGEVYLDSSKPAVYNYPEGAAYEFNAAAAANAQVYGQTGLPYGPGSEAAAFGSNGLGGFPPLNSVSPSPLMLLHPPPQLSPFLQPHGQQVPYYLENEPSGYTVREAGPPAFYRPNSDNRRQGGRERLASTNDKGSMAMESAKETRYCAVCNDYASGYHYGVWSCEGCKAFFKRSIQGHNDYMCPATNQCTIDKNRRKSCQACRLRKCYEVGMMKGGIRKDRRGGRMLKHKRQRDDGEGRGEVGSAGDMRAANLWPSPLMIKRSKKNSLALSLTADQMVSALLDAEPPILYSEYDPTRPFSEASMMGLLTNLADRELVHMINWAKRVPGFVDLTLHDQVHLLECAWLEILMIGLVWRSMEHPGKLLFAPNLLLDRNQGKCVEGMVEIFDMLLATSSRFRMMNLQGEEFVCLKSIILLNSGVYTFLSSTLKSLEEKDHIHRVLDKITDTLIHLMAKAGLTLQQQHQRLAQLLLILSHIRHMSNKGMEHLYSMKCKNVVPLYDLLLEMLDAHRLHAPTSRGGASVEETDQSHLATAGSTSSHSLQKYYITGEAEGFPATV
Kind of test: HyT degrader activity at ER-alpha in human MCF7 cells assessed as induction of ER-alpha degradation by measuring decrease in ER-alpha level at 10 uM incubated for 48 hrs by western blot analysis. The test is classed as cell-based. The arrangement: scale not given: the % may be the effect or the level left. (In general: Immunoblotting shows a protein as a band on a membrane.)

In test [2] the target is T1, Estrogen receptor (Homo sapiens). The test is described as follows: HyT degrader activity at ER-alpha in human MCF7 cells assessed as induction of ER-alpha degradation by measuring decrease in ER-alpha level at 10 uM incubated for 48 hrs followed by drug wash-out and measured after 24 hrs by western blot analysis. The class given is cell-based.
Test [3] deals with MCF7. The test is described as follows: Antiproliferative activity against human MCF7 cells assessed as reduction in cell viability incubated for 48 hrs by MTT assay. The test is classed as functional, cell-based. Conditions: MCF7, 48 h.
In test [4] the test system is MCF7. The test is described as follows: Antiproliferative activity against human MCF7 cells assessed as reduction in cell viability incubated for 48 hrs by MTT assay relative to control. The test is classed as functional. (Tetrazolium dyes change colour on reduction, which living cells bring about.)
The subject of test [5] is MCF7. The test is described as follows: Antiproliferative activity against human MCF7 cells overexpressing EGFR assessed as reduction in cell viability incubated for 48 hrs by MTT assay. Conditions: MCF7, 48 h. The test is classed as functional, cell-based.
Test [6] concerns MCF7. Kind of test: Antiproliferative activity against human MCF7 cells overexpressing EGFR assessed as reduction in cell viability incubated for 48 hrs by MTT assay relative to control. The class given is functional.
Test [7] deals with MCF7. Kind of test: Antiproliferative activity against human MCF7 cells overexpressing ER-alpha Y537S mutant assessed as reduction in cell viability incubated for 48 hrs by MTT assay. The test is classed as functional, cell-based. Conditions: MCF7, 48 h.
For test [8], the system named is MCF7. Kind of test: Antiproliferative activity against human MCF7 cells overexpressing ER-alpha Y537S mutant assessed as reduction in cell viability incubated for 48 hrs by MTT assay relative to control. The class given is functional.
In test [9] the target is Histone deacetylase 1 (Homo sapiens) (UniProt Q13547). Kind of test: HyT degrader activity at HDAC1 in human MCF7 cells assessed as induction of HDAC1 degradation by measuring decrease in HDAC1 level at 0.1 to 50 uM incubated for 24 hrs by immunoblot analysis. The test is classed as cell-based. Conditions: dose 0.1-50 µM.
Test [10] deals with Histone deacetylase 2 (Homo sapiens) (UniProt Q92769). Kind of test: HyT degrader activity at HDAC2 in human MCF7 cells assessed as induction of HDAC2 degradation by measuring decrease in HDAC2 level at 0.1 to 50 uM incubated for 24 hrs by immunoblot analysis. The class given is cell-based. Conditions: dose 0.1-50 µM.
Test [11] concerns the target T2, Protein deacetylase HDAC6 (Homo sapiens) (UniProt Q9UBN7).
T2 sequence (whole entry): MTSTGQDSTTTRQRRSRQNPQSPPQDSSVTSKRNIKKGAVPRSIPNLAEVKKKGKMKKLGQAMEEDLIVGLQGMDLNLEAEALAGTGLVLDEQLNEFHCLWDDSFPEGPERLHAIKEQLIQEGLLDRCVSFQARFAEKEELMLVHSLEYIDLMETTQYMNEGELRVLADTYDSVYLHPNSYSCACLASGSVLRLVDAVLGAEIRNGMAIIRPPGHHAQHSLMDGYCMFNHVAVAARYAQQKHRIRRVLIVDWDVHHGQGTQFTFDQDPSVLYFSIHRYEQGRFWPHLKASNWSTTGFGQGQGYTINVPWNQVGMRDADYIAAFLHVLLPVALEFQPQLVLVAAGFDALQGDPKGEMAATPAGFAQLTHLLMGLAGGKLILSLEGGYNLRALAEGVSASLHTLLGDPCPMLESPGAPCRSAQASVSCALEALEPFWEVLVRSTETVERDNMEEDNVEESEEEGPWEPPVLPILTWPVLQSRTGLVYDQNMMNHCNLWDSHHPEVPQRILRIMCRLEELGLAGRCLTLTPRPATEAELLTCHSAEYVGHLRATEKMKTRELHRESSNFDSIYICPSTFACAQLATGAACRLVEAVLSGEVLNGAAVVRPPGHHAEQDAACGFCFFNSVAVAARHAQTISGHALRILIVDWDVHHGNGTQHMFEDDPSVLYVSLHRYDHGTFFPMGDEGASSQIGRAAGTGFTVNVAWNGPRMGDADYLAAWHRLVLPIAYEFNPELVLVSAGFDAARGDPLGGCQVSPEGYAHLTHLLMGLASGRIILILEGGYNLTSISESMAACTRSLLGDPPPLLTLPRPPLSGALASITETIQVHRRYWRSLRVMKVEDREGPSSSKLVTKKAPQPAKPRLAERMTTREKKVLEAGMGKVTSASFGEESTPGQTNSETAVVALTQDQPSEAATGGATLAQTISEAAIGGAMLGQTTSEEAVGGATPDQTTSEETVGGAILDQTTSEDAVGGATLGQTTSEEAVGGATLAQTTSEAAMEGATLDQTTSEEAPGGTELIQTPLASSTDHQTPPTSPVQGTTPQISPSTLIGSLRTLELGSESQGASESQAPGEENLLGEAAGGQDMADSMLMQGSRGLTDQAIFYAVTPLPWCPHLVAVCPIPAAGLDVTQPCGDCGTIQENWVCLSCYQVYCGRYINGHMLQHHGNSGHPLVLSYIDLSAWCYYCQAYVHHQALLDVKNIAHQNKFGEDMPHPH
Kind of test: HyT degrader activity at HDAC6 in human MCF7 cells assessed as induction of HDAC6 degradation by measuring decrease in HDAC6 level at 0.1 to 10 uM incubated for 24 hrs by immunoblot analysis. The class given is cell-based. Conditions: dose 0.1-10 µM.

Test [12] deals with Histone deacetylase 1 (Homo sapiens) (UniProt Q13547). Kind of test: HyT degrader activity at HDAC1 in human MCF7 cells assessed as induction of HDAC1 degradation at 10 uM incubated for 24 hrs by immunoblot analysis. The test is classed as cell-based.
Test [13] deals with T3, Histone deacetylase (Homo sapiens) (UniProt Q13547+O15379+Q9UBN7+Q92769+Q9UQL6+Q8WUI4+Q9BY41+Q96DB2+P56524+Q9UKV0+Q969S8). The test is described as follows: HyT degrader activity at HDAC in human MCF7 cells assessed as induction of HDAC degradation by measuring increase in acetylated histone H3 level at 0.1 to 50 uM incubated for 24 hrs by immunoblot analysis. The test is classed as cell-based. Conditions: dose 0.1-50 µM.

For test [14], the target named is T3, Histone deacetylase (Homo sapiens). The test is described as follows: HyT degrader activity at HDAC in human MCF7 cells assessed as induction of HDAC degradation by measuring increase in acetylated alpha-tubulin level at 0.1 to 50 uM incubated for 24 hrs by immunoblot analysis. The test is classed as cell-based. Conditions: dose 0.1-50 µM.
For test [15], the target named is Cyclin-dependent kinase 6 (Homo sapiens) (UniProt Q00534). The test is described as follows: HyT degrader activity at CDK6 in human MCF7 cells assessed as induction of CDK6 degradation at 0.1 to 10 uM incubated for 24 hrs by immunoblot analysis. The test is classed as cell-based. Conditions: dose 0.1-10 µM.
For test [16] the target is unchanged. The test is described as follows: HyT degrader activity at CDK6 in human MCF7 cells assessed as induction of CDK6 degradation at 10 uM incubated for 24 hrs by immunoblot analysis. The class given is cell-based.
Test [17] has as its system MCF7. Kind of test: Antitumor activity against human MCF7 cells xenografted in Balb/c mouse assessed as inhibition of tumor growth at 5 mg/kg, iv administered every 3 days and measured for 21 days. The class given is functional. Conditions: MCF7, 504 h, time 21 day, read-out: TGI. In general terms: Xenograft models place foreign cells or tissue in a host animal.

Sequence of Cyclin-dependent kinase 6 (Homo sapiens) (Q00534 whole entry): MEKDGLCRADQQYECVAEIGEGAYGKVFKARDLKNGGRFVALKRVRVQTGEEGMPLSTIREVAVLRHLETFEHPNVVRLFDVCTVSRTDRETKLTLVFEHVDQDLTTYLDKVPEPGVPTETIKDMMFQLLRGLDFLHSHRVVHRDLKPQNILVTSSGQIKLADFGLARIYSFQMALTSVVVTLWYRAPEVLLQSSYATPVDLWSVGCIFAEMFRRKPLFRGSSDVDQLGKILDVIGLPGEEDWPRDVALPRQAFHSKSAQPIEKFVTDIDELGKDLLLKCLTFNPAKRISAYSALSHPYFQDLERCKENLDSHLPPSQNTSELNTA
Sequence of Histone deacetylase 1 (Homo sapiens) (Q13547 whole entry): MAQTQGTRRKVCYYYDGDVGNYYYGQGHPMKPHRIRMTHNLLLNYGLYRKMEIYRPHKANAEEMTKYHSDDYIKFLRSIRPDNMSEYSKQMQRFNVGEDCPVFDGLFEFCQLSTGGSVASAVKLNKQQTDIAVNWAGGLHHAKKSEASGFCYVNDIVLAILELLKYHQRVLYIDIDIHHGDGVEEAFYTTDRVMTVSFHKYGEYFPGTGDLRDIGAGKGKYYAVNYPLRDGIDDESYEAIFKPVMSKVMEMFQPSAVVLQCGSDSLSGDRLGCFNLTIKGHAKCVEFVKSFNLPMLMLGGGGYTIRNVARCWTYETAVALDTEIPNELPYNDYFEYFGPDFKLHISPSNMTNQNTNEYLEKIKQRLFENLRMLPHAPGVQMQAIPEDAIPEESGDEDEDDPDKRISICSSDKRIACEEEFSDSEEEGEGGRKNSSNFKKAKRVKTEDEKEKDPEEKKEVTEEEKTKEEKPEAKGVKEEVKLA
Sequence of Histone deacetylase 2 (Homo sapiens) (Q92769 whole entry): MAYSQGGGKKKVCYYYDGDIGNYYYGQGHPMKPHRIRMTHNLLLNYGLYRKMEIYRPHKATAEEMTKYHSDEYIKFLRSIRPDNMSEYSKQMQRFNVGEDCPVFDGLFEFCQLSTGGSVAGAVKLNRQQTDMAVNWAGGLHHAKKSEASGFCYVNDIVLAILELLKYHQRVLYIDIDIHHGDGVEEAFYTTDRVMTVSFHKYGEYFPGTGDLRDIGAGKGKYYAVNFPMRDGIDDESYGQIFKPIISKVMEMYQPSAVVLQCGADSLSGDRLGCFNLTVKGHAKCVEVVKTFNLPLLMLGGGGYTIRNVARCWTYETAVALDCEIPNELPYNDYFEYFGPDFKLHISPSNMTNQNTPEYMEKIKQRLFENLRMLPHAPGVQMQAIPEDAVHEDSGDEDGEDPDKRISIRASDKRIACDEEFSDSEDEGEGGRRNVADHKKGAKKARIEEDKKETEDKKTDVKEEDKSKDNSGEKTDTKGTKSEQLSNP

In the case of `O=C(c1ccc(OCCCNC(=O)C23CC4CC(CC(C4)C2)C3)cc1)c1c(-c2ccc(O)cc2)sc2cc(O)ccc12`, in [1], the Activity was found to be 77.5%. Besides, in [2], the result was Active. The concentration for half-maximal inhibition (IC50) with MCF7 [3] was 9.54 µM; with MCF7 [5] it was 16 µM; with MCF7 [7], more than 50 µM. Besides, the “inhibition (INH)” value in the test on MCF7 [4] was 70.8%; in the test on MCF7 [6], 57.9%; in the test with MCF7 [8], 41.7%.
`C[C@@H]1CCC2[C@]34OO[C@](C)(CCC13)OC4O[C@]2(C)C(=O)NCCOc1ccc(C(=O)c2c(-c3ccc(O)cc3)sc3cc(O)ccc23)cc1` (single isomer, unassigned): the IC50 with MCF7 [3] is more than 100 µM. Moreover, the “inhibition (INH)” value in the test with MCF7 [4] is on record as 42.6%.
For the molecule `C[C@@H]1CCC2[C@]34OO[C@](C)(CCC13)OC4O[C@]2(C)C(=O)NCCCC(=O)Nc1ccc(NC(=O)CCCCCCC(=O)NO)cc1` (single isomer, unassigned), the half-maximal inhibitory concentration (IC50) with MCF7 [3] worked out at 5.26 µM. Besides, the outcome in test [9], in test [10], in [11], in [13] and in [14] was Active. Also, the Activity in test [12] was found to be 84%.
`CC(=O)c1c(C)c2cnc(NCCCNC(=O)[C@@]3(C)OC4O[C@@]5(C)CCC6[C@H](C)CCC3[C@@]46OO5)nc2n(C2CCCC2)c1=O` (single isomer, unassigned): the IC50 in the test on MCF7 [3] amounted to 5 µM. For the same molecule, the result in test [15] was Active. Also, the Activity in test [16] came out at 73%.
As for `C[C@@H]1CCC2[C@]34OO[C@](C)(CCC13)O[C@@H]4O[C@]2(C)C(=O)NCCCCCCOc1ccc(C(=O)c2c(-c3ccc(O)cc3)sc3cc(O)ccc23)cc1` (stereo partly specified), the IC50 in the test on MCF7 [3] was 45.7 µM. The “inhibition (INH)” value with MCF7 [4] came to 57.1%.
For the molecule `C[C@@H]1CCC2[C@]34OO[C@](C)(CCC13)O[C@@H]4O[C@]2(C)C(=O)NCCCCOc1ccc(C(=O)c2c(-c3ccc(O)cc3)sc3cc(O)ccc23)cc1` (stereo partly specified), the IC50 in the test with MCF7 [3] was determined as 11.4 µM. Also, the “inhibition (INH)” value in the test on MCF7 [4] is on record as 63.5%.
With `C[C@]12CC[C@@H]3c4ccc(O)cc4C[C@@H](CCCCCCCCC[S+]([O-])CCCC(F)(F)C(F)(F)F)[C@H]3[C@@H]1CC[C@@H]2O` (stereo partly specified) [FULVESTRANT], the inhibition in vivo at 5 mg/kg with MCF7 [17] was found to be 87%.
Turning to `O=C(c1ccc(OCCN2CCCCC2)cc1)c1c(-c2ccc(O)cc2)sc2cc(O)ccc12` [RALOXIFENE], the inhibition in vivo at 5 mg/kg in the test on MCF7 [17] came to 68.8%.
